Laboratory results reported in patent US20100267561A1, “HERBICIDAL PYRIDAZINONE DERIVATIVES” (priority 2007, published 2010).
Like-named read-outs stand apart in the source and are kept apart here.

Tests used:
Assay in all cases: Test B pre-/postemergence plant response
Format in all cases: in vivo
[1] = tested on: yellow nutsedge (Cyperus esculentus); settings: for Nutsedge, Yellow plant response rating: 8 g ai/ha; for pest or weed control at 16 g/ha / pest or weed control at 31 g/ha / pest or weed control at 62 g/ha: Cyperus, read-out: Plant response rating, Nutsedge, Yellow; for pest or weed control at 16 g/ha: 16 g ai/ha; for pest or weed control at 31 g/ha: 31 g ai/ha; for pest or weed control at 62 g/ha: 62 g ai/ha
Outline: (§1)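 Visual scoring from 0 (no effect) to 100 (complete control) against untreated controls was done 13 to 15 days after greenhouse treatment. Chemicals were formulated in a surfactant-containing non-phytotoxic solvent and applied to soil preemergence or to 1- to 4-leaf (2-18 cm) plants postemergence.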

[2] = tested on: goosegrass (Eleusine indica); settings: for Goosegrass plant response rating: 8 g ai/ha; for pest or weed control at 16 g/ha / pest or weed control at 31 g/ha / pest or weed control at 62 g/ha: Eleusine indica, read-out: Plant response rating, Goosegrass; for pest or weed control at 16 g/ha: 16 g ai/ha; for pest or weed control at 31 g/ha: 31 g ai/ha; for pest or weed control at 62 g/ha: 62 g ai/ha
Outline: as §1

[3] = tested on: cocklebur (Xanthium strumarium); settings: for Cocklebur plant response rating: 8 g ai/ha; for pest or weed control at 16 g/ha / pest or weed control at 31 g/ha / pest or weed control at 62 g/ha: Xanthium strumarium, read-out: Plant response rating, Cocklebur; for pest or weed control at 16 g/ha: 16 g ai/ha; for pest or weed control at 31 g/ha: 31 g ai/ha; for pest or weed control at 62 g/ha: 62 g ai/ha
Outline: as §1

wild oat (Avena fatua) = settings: for pest or weed control at 16 g/ha / pest or weed control at 31 g/ha / pest or weed control at 62 g/ha: Avena fatua, read-out: Plant response rating, Oat, Wild; for pest or weed control at 16 g/ha: 16 g ai/ha; for pest or weed control at 31 g/ha: 31 g ai/ha; for pest or weed control at 62 g/ha: 62 g ai/ha
Outline: as §1

kochia (Kochia scoparia) = settings: for Kochia plant response rating: 8 g ai/ha; for Plant response rating, Kochia: Postemergence
Outline: as §1

[4] = tested on: blackgrass (Alopecurus myosuroides); settings: for pest or weed control at 31 g/ha: 31 g ai/ha; for pest or weed control at 62 g/ha: 62 g ai/ha
Outline: as §1

[5] = tested on: catchweed bedstraw (Galium aparine); settings: Preemergence
Outline: as §1

[6] = tested on: Russian thistle (Salsola iberica); settings: Preemergence
Outline: as §1

[7] = post-emergence, Postemergence, scale 0 to 100
[8] = post-emergence, Postemergence, scale 0 to 100, 0 no effect, 100 complete control
[9] = pre-emergence, Preemergence, scale 0 to 100 (0 no effect, 100 complete control)
[10] = pre-emergence, Preemergence, 0 to 100 scale, 0 no effect, 100 complete control
[11] = pre-emergence, Preemergence, scale 0 to 100
[12] = 8 g ai/ha, postemergence, 0-100 scale
[13] = Alopecurus myosuroides, post-emergence, Postemergence, scale 0 to 100, 0 no effect, 100 complete control, read-out: Plant response rating, Blackgrass

## CCc1c(C)c(-c2ccc(Cl)cc2)nn1-c1c(O)cnn(C)c1=O [Compound 26, 4-[3-(4-chlorophenyl)-5-ethyl-4-methyl-1H-pyrazol-1-yl]-5-hydroxy-2-methyl-3(2H)-pyridazinone]
[1]; postemergence, 0-100 scale
  Nutsedge, Yellow plant response rating: 0
[1]; [7]
  pest or weed control at 16 g/ha: 0%
[1]; [8]
  pest or weed control at 31 g/ha: 0%
  pest or weed control at 62 g/ha: 0%
[1]; [9]
  pest or weed control at 16 g/ha: 0%
[1]; [10]
  pest or weed control at 31 g/ha: 0%
[1]; [11]
  pest or weed control at 62 g/ha: 0%
[1]; Preemergence, scale 0 to 100
  Nutsedge, Yellow plant response rating: 0
[2]; postemergence, 0-100 scale
  Goosegrass plant response rating: 0
[2]; [7]
  pest or weed control at 16 g/ha: 0%
[2]; [8]
  pest or weed control at 31 g/ha: 0%
  pest or weed control at 62 g/ha: 20%
[2]; [9]
  pest or weed control at 16 g/ha: 50%
[2]; [10]
  pest or weed control at 31 g/ha: 70%
[2]; [11]
  pest or weed control at 62 g/ha: 95%
[2]; Preemergence, scale 0 to 100
  Goosegrass plant response rating: 50
[3]; postemergence, 0-100 scale
  Cocklebur plant response rating: 0
[3]; Preemergence, scale 0 to 100
  Cocklebur plant response rating: 0
[3]; [7]
  pest or weed control at 16 g/ha: 0%
[3]; [8]
  pest or weed control at 31 g/ha: 0%
  pest or weed control at 62 g/ha: 0%
[3]; [9]
  pest or weed control at 16 g/ha: 0%
[3]; [10]
  pest or weed control at 31 g/ha: 0%
[3]; [11]
  pest or weed control at 62 g/ha: 10%
Wild oat (Avena fatua); [12]
  Oat, Wild plant response rating: 85
Wild oat (Avena fatua); [7]
  pest or weed control at 16 g/ha: 90%
Wild oat (Avena fatua); [8]
  pest or weed control at 31 g/ha: 90%
  pest or weed control at 62 g/ha: 100%
Wild oat (Avena fatua); [9]
  pest or weed control at 16 g/ha: 80%
Wild oat (Avena fatua); [10]
  pest or weed control at 31 g/ha: 85%
Wild oat (Avena fatua); [11]
  pest or weed control at 62 g/ha: 85%
Kochia (Kochia scoparia); postemergence, 0-100 scale
  Kochia plant response rating: 0
Kochia (Kochia scoparia); 16 g ai/ha, scale 0 to 100
  Plant response rating, Kochia: 0
Kochia (Kochia scoparia); 31 g ai/ha, scale 0 to 100, 0 no effect, 100 complete control
  Plant response rating, Kochia: 0
Kochia (Kochia scoparia); 62 g ai/ha, scale 0 to 100, 0 no effect, 100 complete control
  Plant response rating, Kochia: 0
Kochia (Kochia scoparia); Preemergence, scale 0 to 100
  Kochia plant response rating: 0
[4]; [12]
  Blackgrass plant response rating: 0
[4]; Alopecurus myosuroides, post-emergence, Postemergence, 16 g ai/ha, scale 0 to 100, read-out: Plant response rating, Blackgrass
  pest or weed control at 16 g/ha: 50%
[4]; [13]
  pest or weed control at 31 g/ha: 80%
  pest or weed control at 62 g/ha: 80%
[4]; Alopecurus myosuroides, pre-emergence, Preemergence, 0 to 100 scale, 0 no effect, 100 complete control, read-out: Plant response rating, Blackgrass
  pest or weed control at 31 g/ha: 85%
[4]; Alopecurus myosuroides, pre-emergence, Preemergence, scale 0 to 100, read-out: Plant response rating, Blackgrass
  pest or weed control at 62 g/ha: 100%
[5]; Galium aparine, pre-emergence, 16 g ai/ha, scale 0 to 100 (0 no effect, 100 complete control), read-out: Plant response rating, Galium
  pest or weed control at 16 g/ha: 0%
[5]; Galium aparine, pre-emergence, 31 g ai/ha, 0 to 100 scale, 0 no effect, 100 complete control, read-out: Plant response rating, Galium
  pest or weed control at 31 g/ha: 0%
[5]; Galium aparine, pre-emergence, 62 g ai/ha, scale 0 to 100, read-out: Plant response rating, Galium
  pest or weed control at 62 g/ha: 0%
[5]; 8 g ai/ha, scale 0 to 100
  Galium plant response rating: 0
[6]; 16 g ai/ha, scale 0 to 100 (0 no effect, 100 complete control)
  Plant response rating, Russian Thistle: 0
[6]; 31 g ai/ha, 0 to 100 scale, 0 no effect, 100 complete control
  Plant response rating, Russian Thistle: 0
